Measured values taken from patent US20200256882A1, “FLUID PROPERTY MEASUREMENT DEVICES AND METHODS” (Abram Scientific, Inc., priority 2019, published 2020).
Where two headings read alike, the source gives them in different places. Positions of bridges follow the written chain, without caps; N, C: chain ends. Non-standard residues stand in square brackets, D forms with d. Residues, ends and D or L forms follow the SMILES beside them. hArg = N=C(N)NCCCC[C@H](N)C(=O)O; Mpa = O=C(O)CCS

Columns and labels:
[1] = test system: whole blood samples (extrinsic coagulation pathway); test: Thromboelastogram (TEG) coagulation test on disposable test strip; assay type: biochemical; conditions: for peak / maximum thrombin generation (ThrombinPeak): blood samples with increasing concentrations of the anticoagulant (heparin 0 to 3 IU/ml); for clot formation time (R): blood samples with increasing concentrations of the anticoagulant, FIG. 20(a), 21(a); for clot stiffness G: blood samples with increasing concentrations of the substance (cleavable fibrinogen 42 to 231 mg/dL); for ratio of the normalized ThrombinPeak and clot stiffness G: tested samples with increasing anticoagulant concentrations, FIG. 22(d)
Experimental: The disposable test strips used in this example were incorporated with a reagent comprising of rabbit brain thromboplastin (Pacific Hemostasis Prothrombin Time reagent, Thromboplastin-DS, Product# 29-227-3), calcium chloride (25 mM) and Tween (2% v/v aqueous solution). Prior to the final assembly of the strip, the reagent was incorporated by dispensing the solution on to the exposed hydrophilic surface in the bottom stack, followed by air-drying in a drying box with humidity control at standard room temperature and pressure. The ratio of the volume of the reagent to blood tested in the chamber was maintained at close to 2:1 to ensure successful initiation of the blood coagulation reaction. […] In this example, venous whole blood and finger-stick, capillary whole blood samples from a normal subject were used. In addition, finger-stick, capillary whole blood samples from patients undergoing warfarin therapy at an anticoagulation clinic were used. Following procurement of informed consent under an Institutional Review Board (IRB) approved protocol, phlebotomy was performed to extract the blood sample by venipuncture and the sample was directly dispensed into blood collection tubes containing sodium citrate anticoagulant. The citrated whole blood samples were contrived in vitro to incorporate varying amounts of unfractionated heparin (0 to 3 IU/ml), cleavable fibrinogen (42 to 231 mg/dL), Eptifibatide (GPIIb/IIIa platelet inhibitor, 0 to 12 μg/mL), and tissue plasminogen activator (tPA, 0 to 1.8 nM). Further in some tests, following procurement of informed consent under an Institutional Review Board (IRB) approved protocol, a standard lancet was used to extract blood samples by finger-stick and a standard microliter pipette or dropper was used to pick up the sample for insertion into the disposable test strip. Lastly, in some tests, blood samples were also tested using 2 Haemonetics' TEG-5000 instruments (2 tests per instrument) and their corresponding TEG curve & parameters were recorded, in order to perform side-by-side comparison with the results generated using the disposable test strips. Results: • In this example, the oscillation characteristics (amplitude and phase) of the in-plane vibration mode of a physical element in single-use disposable test strips were measured as a function of frequency in the vicinity of the resonance frequency, and these amplitude & phase frequency scans were monitored periodically to determine different aspects of the blood coagulation cascade. The blood sample upon entering the chamber reacted with the dried reagent and started to coagulate through the extrinsic coagulation pathway. An example of the amplitude and phase frequency scans of an oscillating physical element in a disposable test strip with a blood sample in the chamber undergoing coagulation is shown in FIGS. 13(a) and 13(b), respectively, wherein the amplitude and phase at the resonance frequency peak are seen to decrease in magnitude as the blood coagulation cascade progresses. These amplitude and phase frequency scans monitored periodically over time were used to perform a Thromboelastogram (TEG) test, wherein a characteristic […] shaped viscoelastic curve and parameters were extracted. The TEG-like viscoelastic parameters extracted were clot formation time (R), activated clotting time (ACT), maximum thrombin generation (ThrombinPeak), clot stiffness (G), platelet contraction rate (Plt-Cont), and fibrinolysis rate (Lys-Rate). A mathematical model of the viscoelastic oscillation damping of the physical element, which incorporated the different kinetic processes in the coagulation cascade, was used to fit to data from the amplitude and phase frequency scans measured as a function of time. […]

[2] = Experimental: Ethylene glycol solutions were prepared using de-ionized water in varying concentrations ranging from 0 to 40.38% as shown in Table I. The solutions were prepared in 20 ml de-ionized water and corresponding volume of ethylene glycol solutions concentrations. The fluid sample, when introduced into the assembled disposable test strip through the inlet port (i.e. rectangular opening 207 in FIG. 2(a)), wicked into the chamber under the region of the substrate layer leading up to the suspended beam, followed by the fluid flow being directed through the chamber along the beam length while maintaining contact with the underside of the beam (at or slightly beyond its width), and finally, flowing through the chamber under the region of the substrate layer past the beam leading up to the vent port (i.e. rectangular opening 208 in FIG. 2(a)), which permits air to escape from the chamber as it is loaded with the fluid sample.
[3] = test system: venous whole blood samples (intrinsic coagulation pathway); test: Activated partial thromboplastin time (aPTT) coagulation test on disposable test strip; assay type: biochemical; conditions: citrated venous whole blood spiked in vitro, 0.0 to 1.0 IU/ml; FIG. 10, R^2=0.92
Experimental: The disposable test strips used in this example were incorporated with a reagent comprising of Actin-FS activated partial thromboplastin time reagent (Siemens Diagnostics, Catalog# B4218-20), calcium chloride (25 mM) and Tween (2% v/v aqueous solution). Prior to the final assembly of the strip, the reagent was incorporated by dispensing the solution on to the exposed hydrophilic surface in the bottom stack, followed by air-drying in a drying box with humidity control at standard room temperature and pressure. The ratio of the volume of the reagent to blood tested in the chamber was maintained at close to 2:1 to ensure successful initiation of the blood coagulation reaction. […]
In this example, the oscillation characteristics (e.g., amplitude) of the in-plane mode of a physical element in single-use disposable test strips were monitored and recorded before and after introduction of the blood sample, in order to measure the change in viscosity and viscoelasticity of the blood sample as a function of time as it undergoes coagulation. […] An algorithm was used to track the measured oscillation characteristics, viscosity and/or viscoelasticity as a function of time and identify a time to clot formation (measured starting from blood sample insertion time, t=0), in other words known as the partial thromboplastin time (aPTT). […]

[4] = test system: venous whole blood samples (intrinsic coagulation pathway); test: Low range activated clotting time (ACT) coagulation test on disposable test strip; assay type: biochemical; conditions: citrated venous whole blood spiked in vitro, 0.0 to 3.0 IU/ml; FIG. 11, R^2=0.99
Experimental: (§1) The disposable test strips used in this example were incorporated with a reagent comprising of kaolin suspended in distilled water, calcium chloride (25 mM) and Tween (2% v/v aqueous solution). Prior to the final assembly of the strip, the reagent was incorporated by dispensing the solution on to the exposed hydrophilic surface in the bottom stack, followed by air-drying in a drying box with humidity control at standard room temperature and pressure. […]
(§2) Results: • In this example, the oscillation characteristics (e.g., amplitude) of the in-plane mode of a physical element in single-use disposable test strips were monitored and recorded before and after introduction of the blood sample, in order to measure the change in viscosity and viscoelasticity of the blood sample as a function of time as it undergoes coagulation. […] An algorithm was used to track the measured oscillation characteristics, viscosity and/or viscoelasticity as a function of time and identify a time to clot formation (measured starting from blood sample insertion time, t=0), in other words known as the activated clotting time (ACT). […] In this specific example, the ACT clotting time measured corresponds to a low-range ACT measurement given the system's sensitivity from 0.0 to 3.0 IU/ml, which corresponds to the low range of heparin therapy used during cardiac and hepatic surgeries.

[5] = test system: venous whole blood samples (intrinsic coagulation pathway); test: High range activated clotting time (ACT) coagulation test on disposable test strip; assay type: biochemical; conditions: citrated venous whole blood spiked in vitro, 1.0 to 5.0 IU/ml; FIG. 12, R^2=0.95
Experimental: as §1
as §2, with “high-range” for “low-range”, “1.0” for “0.0”, “5.0” for “3.0”, “high” for “low”

[6] = 16.22 % v/v in de-ionized water
[7] = 40.38 % v/v in de-ionized water
[8] = 3 warfarin patient samples, increasing warfarin activity, FIG. 15

## N=C(N)NCCCC[C@@H]1NC(=O)CCSSC[C@@H](C(N)=O)NC(=O)[C@@H]2CCCN2C(=O)[C@H](Cc2c[nH]c3ccccc23)NC(=O)[C@H](CC(=O)O)NC(=O)CNC1=O [Eptifibatide] ([Mpa][hArg]GDWPC-NH2; disulfide 1-7)
[1]; blood samples with increasing concentrations, 0 to 12 μg/mL, FIG. 18(b)
  rate of platelet contraction (Plt-Cont): decreasing trend

## OCCO [Ethylene Glycol, ethylene glycol]
[2]; 10 % v/v in de-ionized water
  Density: 1.035 gm/cc
  Viscosity: 1.9903 cP
[2]; [6]
  Density: 1.052 gm/cc
  Viscosity: 2.7938 cP
[2]; 22.5 % v/v in de-ionized water
  Density: 1.065 gm/cc
  Viscosity: 3.711 cP
[2]; [7]
  Density: 1.088 gm/cc
  Viscosity: 6.8247 cP

## CC(=O)CC(c1ccccc1)c1c(O)c2ccccc2oc1=O (stereo not shown) [warfarin]
[1]; 3 warfarin patient samples, increasing warfarin activity (PT 17.4, 36.4, 54.4 seconds), FIG. 15
  maximum thrombin generation: steady decrease
[1]; [8]
  time to maximum fibrin formation (TMA): delayed
  time to maximum thrombin generation (analogous to the ACT): delayed

## Dabigatran
[1]
  peak / maximum thrombin generation (ThrombinPeak): limited to no effect
  clot formation time (R): increasing linear trend
  clot stiffness G: reducing
  ratio of the normalized ThrombinPeak and clot stiffness G: increasing

## heparin
[3]
  uncalibrated aPTT clotting time: linear dose response
[4]
  uncalibrated ACT clotting time (low-range): linear dose response
[5]
  uncalibrated ACT clotting time (high-range): linear dose response
[1]
  peak / maximum thrombin generation (ThrombinPeak): decrease
[1]; blood samples with increasing heparin concentrations from 0 to 3 IU/ml, FIG. 16
  activated clotting time (ACT), time to peak thrombin generation: increase

## O=C(NC[C@H]1CN(c2ccc(N3CCOCC3=O)cc2)C(=O)O1)c1ccc(Cl)s1 [Rivaroxaban]
[1]
  peak / maximum thrombin generation (ThrombinPeak): reducing
  clot formation time (R): increasing linear trend
  clot stiffness G: limited to no effect
  ratio of the normalized ThrombinPeak and clot stiffness G: decreasing linear trend
